According to ChEMBL document CHEMBL1137424, “Array synthesis of progesterone receptor antagonists: 3-aryl-1,2-diazepines” (Bioorg Med Chem Lett, 2006):

Assays:
Progesterone receptor [1] = biological target: T1, Progesterone receptor (Homo sapiens, UniProt P06401); assay: Antagonist activity against PR beta-mediated transactivation of MMTV luciferase reporter gene in BacMam transduced progesterone-stimulated CV1 cells; type: functional, cell-based, CV-1
T1 sequence (P06401 whole entry): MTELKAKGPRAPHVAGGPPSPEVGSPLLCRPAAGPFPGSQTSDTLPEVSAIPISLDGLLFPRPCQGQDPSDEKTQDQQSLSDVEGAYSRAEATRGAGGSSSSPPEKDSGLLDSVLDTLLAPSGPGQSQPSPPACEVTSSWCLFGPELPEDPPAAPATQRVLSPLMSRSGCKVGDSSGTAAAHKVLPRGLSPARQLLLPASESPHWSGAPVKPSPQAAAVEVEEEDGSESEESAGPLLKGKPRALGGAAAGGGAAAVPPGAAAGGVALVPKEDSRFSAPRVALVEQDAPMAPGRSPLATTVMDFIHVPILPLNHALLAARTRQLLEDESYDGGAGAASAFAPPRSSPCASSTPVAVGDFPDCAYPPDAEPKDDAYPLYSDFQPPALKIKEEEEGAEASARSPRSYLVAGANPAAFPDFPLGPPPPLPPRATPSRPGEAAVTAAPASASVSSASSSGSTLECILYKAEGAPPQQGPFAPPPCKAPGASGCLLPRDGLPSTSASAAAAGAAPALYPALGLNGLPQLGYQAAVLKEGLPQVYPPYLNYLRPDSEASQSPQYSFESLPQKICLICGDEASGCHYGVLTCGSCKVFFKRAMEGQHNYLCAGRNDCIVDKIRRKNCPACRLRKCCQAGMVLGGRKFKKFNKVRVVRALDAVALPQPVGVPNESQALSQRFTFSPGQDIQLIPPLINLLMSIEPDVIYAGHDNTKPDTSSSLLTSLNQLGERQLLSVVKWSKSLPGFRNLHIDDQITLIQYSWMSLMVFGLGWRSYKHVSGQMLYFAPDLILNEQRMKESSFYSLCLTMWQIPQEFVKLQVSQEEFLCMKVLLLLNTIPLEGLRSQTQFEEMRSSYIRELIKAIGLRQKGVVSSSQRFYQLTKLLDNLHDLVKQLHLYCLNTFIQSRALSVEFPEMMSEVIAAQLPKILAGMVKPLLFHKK

Progesterone receptor [2] = biological target: T1, Progesterone receptor; assay: Binding affinity at PR by fluorescence binding assay

SMILES	IC50 (Progesterone receptor [1]) [nM]	Ki (Progesterone receptor [2]) [nM]
Cc1c(Cl)cccc1S(=O)(=O)N1CCCCC(c2cccc(Cl)c2)=N1	2000	316
O=S(=O)(c1ccc(Cl)s1)N1CCCCC(c2ccccc2Cl)=N1	631	200
O=S(=O)(c1ccc(Cl)cc1)N1CCCCC(c2cccc(F)c2)=N1	501	794
N#Cc1ccc(C2=NN(S(=O)(=O)c3ccccc3F)CCCC2)cc1	398	1000
O=S(=O)(c1cccc(Cl)c1)N1CCCCC(c2ccc(Cl)cc2)=N1	1260	631

The next compounds have a lower Ki (Progesterone receptor [2]) than those just listed; values first:

IC50 (Progesterone receptor [1]) [nM]	Ki (Progesterone receptor [2]) [nM]	SMILES
251	63.1	O=S(=O)(c1ccc(Br)s1)N1CCCCC(c2cccc(Br)c2)=N1
316	25.1	O=S(=O)(c1ccc(Br)s1)N1CCCCC(c2ccc(Cl)c(Cl)c2)=N1
	39.8	O=S(=O)(c1ccc(Cl)s1)N1CCCCC(c2ccc(Cl)c(Cl)c2)=N1
158	50.1	O=[N+]([O-])c1ccc(C2=NN(S(=O)(=O)c3ccc(OC(F)(F)F)cc3)CCCC2)cc1
200	50.1	O=S(=O)(c1ccc(Cl)cc1Cl)N1CCCCC(c2ccc(Cl)c(Cl)c2)=N1
	63.1	N#Cc1ccc(C2=NN(S(=O)(=O)c3ccc(Br)s3)CCCC2)cc1
